US9540350B2, “1-substituted, 4-(substituted phenoxymethyl)-1,2,3-triazole compounds with antifungal properties and methods for preparation thereof” (FDC LIMITED, priority 2013, dated 2017)
Values after ≈ are worked out from the molar mass of the structure shown.

Legend:
C. neoformans ATCC 34664 = test: Antifungal susceptibility, broth dilution MIC (CLSI M27-A2); type: cell-based, Cryptococcus neoformans; details: Cryptococcus neoformans, ATCC34664; C. neoformans ATCC 34664; broth dilution, RPMI 1640 with MOPS, 48 hours; read-out: Activity against organisms (MIC50) Cn01
Procedure: (§1) The compounds of Formula 1 were tested for antifungal activity against Candida albicans, C. glabrata, C. krusei, C. tropicalis, Cryptococcus neoformans, Aspergillus fumigatus, A. niger and Fusarium proliferatum. In vitro evaluation of antifungal activity was performed by determining the minimum inhibitory concentration (MIC) following standard methods (CLSI: Reference method for broth dilution antifungal susceptibility testing of yeasts; Approved standard, second edition M27-A2, 2002; CLSI: Reference method for broth dilution antifungal susceptibility testing of filamentous fungi; Approved standard M38-A, 2002). Anti-fungal susceptibility testing of these anti-fungal compounds was done by broth dilution method using RPMI 1640 medium with MOPS buffer. Known anti-fungal agent fluconazole was used as positive control. End points were determined after 48 hours visually and by using spectrophotometer wherever necessary. Different dilutions were tried and various sets of experiments performed. The activity parameters are enumerated in Table 4.

C. glabrata ATCC 90030 = test: as above; type: cell-based, Candida glabrata; details: Nakaseomyces glabratus, ATCC90030; C. glabrata ATCC 90030; broth dilution, RPMI 1640 with MOPS, 48 hours; read-out: Activity against organisms (MIC50) Cg01
Procedure: as §1

C. krusei ATCC 6258 = test: as above; type: cell-based, Candida krusei; details: Pichia kudriavzevii, ATCC6258; C. krusei ATCC 6258; broth dilution, RPMI 1640 with MOPS, 48 hours; read-out: Activity against organisms (MIC50) Ck01
Procedure: as §1

C. albicans ATCC 24433 = test: as above; type: cell-based; details: Candida albicans, ATCC24433; C. albicans ATCC 24433; broth dilution, RPMI 1640 with MOPS, 48 hours; read-out: Activity against organisms (MIC50) Ca01
Procedure: as §1

[1] = system: F. proliferatum ATCC 10052; test: Antifungal susceptibility, broth dilution MIC (CLSI M38-A); type: cell-based; details: Fusarium proliferatum, ATCC10052; F. proliferatum ATCC 10052; broth dilution, RPMI 1640 with MOPS, 48 hours; read-out: Activity against organisms (MIC50) Fp01
Procedure: as §1

A. fumigatus ATCC 46645 = test: as above; type: cell-based; details: Aspergillus fumigatus, ATCC46645; A. fumigatus ATCC 46645; broth dilution, RPMI 1640 with MOPS, 48 hours; read-out: Activity against organisms (MIC50) Afm01
Procedure: as §1

A. niger ATCC 16404 = test: as above; type: cell-based; details: Aspergillus niger, ATCC16404; A. niger ATCC 16404; broth dilution, RPMI 1640 with MOPS, 48 hours; read-out: Activity against organisms (MIC50) An01
Procedure: as §1

C. tropicalis ATCC 750 = test: Antifungal susceptibility, broth dilution MIC (CLSI M27-A2); type: cell-based, Candida tropicalis; details: Candida tropicalis, ATCC750; C. tropicalis ATCC 750; broth dilution, RPMI 1640 with MOPS, 48 hours; read-out: Activity against organisms (MIC50) Ct01
Procedure: as §1

SMILES | MIC50 (C. neoformans ATCC 34664) [µg/mL] | MIC50 (C. glabrata ATCC 90030) [µg/mL] | MIC50 (C. krusei ATCC 6258) [µg/mL] | MIC50 (C. albicans ATCC 24433) [µg/mL] | MIC50 [1] [µg/mL] | MIC50 (A. fumigatus ATCC 46645) [µg/mL] | MIC50 (A. niger ATCC 16404) [µg/mL] | MIC50 (C. tropicalis ATCC 750) [µg/mL]
O=C(/C=C/c1ccccc1)c1ccc(OCc2cn(CC(O)(Cn3cncn3)c3ccc(F)cc3F)nn2)cc1 (stereo not drawn) [Compound 1A-1, (E)-1-(4-((1-(2-(2,4-Difluorophenyl)-2-hydroxy-3-(1H-1,2,4-triazol-1-yl)propyl)-1H-1,2,3-triazol-4-yl)methoxy)phenyl)-3-phenylprop-2-en-1-one] | 0.5 (≈ 0.922 µM) | 0.12 (≈ 0.221 µM) | 4 (≈ 7.37 µM) | 0.12 (≈ 0.221 µM) | > 8 | > 8 | > 8 | 1 (≈ 1.84 µM)
COc1ccc(/C=C/C(=O)c2ccc(OCc3cn(CC(O)(Cn4cncn4)c4ccc(F)cc4F)nn3)cc2)cc1 (stereo not drawn) [Compound 1A-2, (E)-1-(4-((1-(2-(2,4-Difluorophenyl)-2-hydroxy-3-(1H-1,2,4-triazol-1-yl)propyl)-1H-1,2,3-triazol-4-yl)methoxy)phenyl)-3-(4-methoxyphenyl)prop-2-en-1-one] | 1 (≈ 1.75 µM) | 1 (≈ 1.75 µM) | 8 (≈ 14 µM) | 0.25 (≈ 0.437 µM) | > 4 | > 4 | > 4 | 2 (≈ 3.49 µM)
Cc1ccc(/C=C/C(=O)c2ccc(OCc3cn(CC(O)(Cn4cncn4)c4ccc(F)cc4F)nn3)cc2)cc1 (stereo not drawn) [Compound 1A-3, (E)-1-(4-((1-(2-(2,4-Difluorophenyl)-2-hydroxy-3-(1H-1,2,4-triazol-1-yl)propyl)-1H-1,2,3-triazol-4-yl)methoxy)phenyl)-3-(4-methylphenyl)prop-2-en-1-one] | 0.5 (≈ 0.898 µM) | 0.25 (≈ 0.449 µM) | 4 (≈ 7.19 µM) | 0.25 (≈ 0.449 µM) | > 4 | > 4 | > 4 | 2 (≈ 3.59 µM)
O=C(/C=C/c1cccs1)c1ccc(OCc2cn(CC(O)(Cn3cncn3)c3ccc(F)cc3F)nn2)cc1 (stereo not drawn) [Compound 1A-4, (E)-1-(4-((1-(2-(2,4-Difluorophenyl)-2-hydroxy-3-(1H-1,2,4-triazol-1-yl)propyl)-1H-1,2,3-triazol-4-yl)methoxy)phenyl)-3-(2-thienyl)prop-2-en-1-one] | 0.5 (≈ 0.911 µM) | 0.5 (≈ 0.911 µM) | 4 (≈ 7.29 µM) | 0.12 (≈ 0.219 µM) | > 8 | > 8 | > 8 | 1 (≈ 1.82 µM)
COc1ccc(C(=O)/C=C/c2ccc(OCc3cn(CC(O)(Cn4cncn4)c4ccc(F)cc4F)nn3)cc2)cc1 (stereo not drawn) [Compound 1B-1] | 1 (≈ 1.75 µM) | 0.5 (≈ 0.873 µM) | 4 (≈ 6.99 µM) | 0.12 (≈ 0.21 µM) | > 4 | > 4 | > 4 | 1 (≈ 1.75 µM)
O=C(/C=C/c1ccc(OCc2cn(CC(O)(Cn3cncn3)c3ccc(F)cc3F)nn2)cc1)c1ccc(F)cc1 (stereo not drawn) [Compound 1B-2, (E)-3-(4-((1-(2-(2,4-Difluorophenyl)-2-hydroxy-3-(1H-1,2,4-triazol-1-yl)propyl)-1H-1,2,3-triazol-4-yl)methoxy)phenyl)-1-(4-fluorophenyl)prop-2-en-1-one] | 0.25 (≈ 0.446 µM) | 0.5 (≈ 0.892 µM) | 4 (≈ 7.14 µM) | 0.06 (≈ 0.107 µM) | > 4 | > 4 | > 4 | 2 (≈ 3.57 µM)
